# Experimental data taken from US20220241369A1, “COMPOSITIONS AND METHODS OF MODULATING INFLAMMATION” (La Jolla Institute for Allergy and Immunology, priority 2018, published 2022).
# Entries after “also recorded” stand apart in the source; their conditions may differ.
# Legend:
# [1] = tested on: BEAS-2B human bronchial epithelial cells; assay: HRF secretion, western blot, BEAS-2B; type: cell-based; conditions: combination of HDM and cytokine, 24 h
# Source text: As lung epithelial cells are exposed to the environment, HRF secretion was studied using BEAS-2B human bronchial epithelial cells. A small amount of HRF was secreted constitutively, but house dust mite allergens induced the secretion of high-molecular-weight HRF species (HMW-HRFs). Various cytokines including epithelial derived cytokines as well as Th2 cytokines and proinflammatory cytokines further enhanced HDM-induced secretion of HMW-HRFs.
# Cultured cells were scraped and treated with adenosine and ATP, which should be abundantly present in inflammatory or injured tissues. These conditions induced secretion of HRF monomer, dimer and HMW-HRFs like stimulation with HDM plus cytokines.
# Culture supernatants were analyzed by SDS-PAGE under nonreducing (−DTT) and reducing (+DTT) conditions, followed by western blotting for HRF probing. HDM-induced HRF secretion was enhanced not only by Th2 cytokines (IL-4, IL-5, and IL-13), but also by epithelial derived cytokines (IL-25, IL-33, and TSLP) and proinflammatory cytokines (IL-1beta, IL-6 and TNF). med, medium alone; US, unstimulated; HDM, house dust mite; CR, cockroach; RW, ragweed; Af, Aspergillus fumigatus. Arrowhead, HRF monomer.
# [2] = tested on: Raw264.7 murine macrophages; assay: HRF secretion into culture supernatant, western blot, macrophages; type: cell-based, mouse; conditions: stimulated overnight, 20 or 100 ng/ml
# Procedure: (§1) FIGS. 4A-4C show HRF is secreted by various cells. CMT-93 murine intestinal epithelial cells (FIG. 4A) and NIH/3T3 murine fibroblasts (FIG. 4B) and Raw264.7 murine macrophages (FIG. 4C) were stimulated overnight with low (20 ng/ml) and high (100 ng/mL) concentrations of various cytokines. HRF secreted into culture supernatants was detected by western blotting. Med and US denote medium only and supernatant from unstimulated cells, respectively. −DTT and +DTT indicate SDS gels were run under non-reducing and reducing conditions, respectively. Gel portions of containing the 23 kDa HRF monomer are shown except that a larger portion of the non-reducing gel is shown in panel C. Arrow indicates the position of HRF dimer, which disappeared under reducing conditions.
# (§2) The following cell lines were cultured in DMEM plus 10% FCS except for U-937 cells which were cultured in RPMI1640 plus 10% FCS: CMT-93 mouse and Caco-2 (with 20% FCS) human intestinal epithelial cell lines; NIH/3T3 mouse fibroblast line; Raw 264.7 mouse and U-937 human macrophage lines; BEAS-2B human bronchial epithelial cell line; 293T human embryonic kidney cell line (obtained from ATCC, Manassas, Va., except for NIH/3T3, which was provided by S. A. Aaronson, NIH). Fibroblast-like stromal cells were cultured from small intestines of BALB/c mice in DMEM/10% FBS. CD4^+ T and B cells were purified from mouse spleens using BD IMag™ Mouse CD4 and B cells enrichment set-DM. Low-density bone-marrow cells were cultured in the presence of 100 ng/ml of stem cell factor (PeproTech) and 100 ng/ml of FLT-3 ligand (R&D Systems) for 4 days, and with 10 ng/mL of IL-5 (R&D Systems) thereafter for 10 days to obtain bone marrow-derived eosinophils (44). Bone marrow cells were cultured in the presence of 20 ng/ml of GM-CSF for 6 days and adherent cells were collected as bone marrow-derived macrophages. Non-adherent cells were further cultured with 5 ng/ml GM-CSF and the non-adherent cells were collected as bone marrow-derived dendritic cells. […]
# [3] = tested on: CMT-93 murine intestinal epithelial cells; assay: HRF secretion into culture supernatant, western blot, CMT-93; type: cell-based, mouse; conditions: stimulated overnight, 20 or 100 ng/ml
# Procedure: as §1, §2
# [4] = tested on: OVA-induced food allergy (allergic diarrhea); assay: IgE-mediated experimental food allergy, i.g. pretreatment with HRF inhibitor before each OVA challenge; type: in vivo, mouse
# Procedure: FIGS. 1A-1I show GST-N19 inhibits the development of diarrhea and intestinal mastocytosis in murine food allergy. Mice were i.p. sensitized with OVA ([…]) plus alum on days 0 and 14. From day 28, mice were i.g. challenged with OVA (50 mg) three times a week. Sensitized mice were either non-pretreated (−) or i.g. pretreated with 100 μg of GST or GST-N19 (N19). (FIG. 1A) Procedure scheme. (FIG. 1B) The development of diarrhea was monitored for 90 min after each OVA challenge. (n=5 for non-sensitized group, n=3 for inhibitor non-pretreated group, n=4 for GST group, n=6 for N19 group, data are representative of at least 3 independent experiments) Log-rank test: p=0.028 (GST vs. GST-N19), p=0.036 (control vs. GST-N19). […] (FIG. 1C-FIG. 1E) Total IgE, IgG1, HRF, and HRF-reactive IgE and IgG in sera were measured by ELISA. (FIG. 1F) Serum mMCP-1 was also measured by ELISA. (FIG. 1G) Sections of jejunum were stained with chloroacetate esterase to identify mast cells. Sections indicated by rectangles are enlarged in lower rows. Bar=100 μm in large pictures and 50 μm in insets. (FIG. 1H) Flow cytometry was performed to enumerate MMC9s (Lin^−c-Kit^+ST2^+IL-17RB^−Integrin β7^lo) in jejunum. (n=14 for non-sensitized group, n=15 for inhibitor non-pretreated group, n=9 for GST group, n=9 for GST-N19 group, pooled data of 3 independent experiments) (FIG. 1I) Cytokine mRNAs in jejunum were quantified by qRT-PCR. *, **: p<0.05, p<0.01 by ANOVA with Tukey's multiple comparison.
# Mice were i.p. sensitized with OVA (50 μg/mouse) plus alum on days 0 and 14. From day 28, mice were i.g. challenged with OVA (25 or 50 mg) or PBS (control) three times a week. Before each challenge, mice were starved for 3 h, then i.g. pretreated with GST, GST-N19 (100 μg/mouse), synthetic N19 peptide, or HRF-2CA. The development of diarrhea was monitored for 90 min after OVA challenge. Diarrhea severity (30) was based on states of stool: solid (score 0), funicular (score 1), slurry (score 2), and watery (score 3).
# For histologic analysis, jejunal tissue was fixed in 10% formalin. Mast cells in jejunal sections were detected by chloroacetate esterase staining. IgE, IgG, IgG1, IgG2a, mMCP-1, HRF, HRF-reactive IgE, and HRF-reactive IgG 24 h after the last OVA challenge were measured by ELISA (see Supplemental Information). Cytokine mRNAs in jejunum were quantified by qRT-PCR.
# Twenty-four hours after the last OVA challenge, mice were sacrificed and small intestines (0.5-15 cm from stomach) were collected. The intestinal tissues were opened longitudinally and washed with HBSS. The washed tissues were incubated with 5 mM EDTA-HBSS for 30 min at 4° C., transferred to 30 ml HBSS in 50 ml tubes, and vigorously shaken to remove intestinal epithelial cells. The tissues were then washed with 10 ml of 10% FCS RPMI medium. Tissues were cut into tiny pieces and incubated with 2.4 mg/ml Collagenase D and 0.2 mg/ml DNase for 30 min at 37° C. Then cells were washed, resuspended in 44% Percoll solution, and slowly loaded on the top of 67% Percoll solution. The cells were centrifuged (1800 rpm, 20 min) and lymphocyte fractions were collected and used for detection of MMC9s (Lin^−c-Kit^+ST2^+IL-17RB^−Integrin β7^lo).
# The cells were first incubated with 2.4G2 for 15 min at 4° C. and further incubated with Abs (PE-anti-07 integrin mAb (clone FIB504), PerCP/Cy5.5-anti-CD4 mAb (clone RM4-5), PerCP/Cy5.5-anti-CD8 mAb (clone 53-6.7), PerCP/Cy5.5-anti-CD11b mAb (clone M1/70), PerCP/Cy5.5-anti-CD11c mAb (clone N418), PerCP/Cy5.5-anti-B220 mAb (RA3-6B2), PerCP/Cy5.5-anti-Ly-6G/Ly-6C mAb (clone RB6-8C5), PerCP/Cy5.5-anti-CD335 mAb (clone 29A1.4), AlexaFluor647-anti-IL-17RB (clone 9B10), APC/Cy7-anti-CD117 (clone 2B8), Biotin-anti-ST2 (clone DIH9)) (Biolegend) for 30 min at 4° C. After washed, the cells were incubated with SA-BV421 (Biolegend) for 30 min at 4° C. MMC9 population was identified using FACS Canto. Data were analyzed using FlowJo software.
# [5] = tested on: IgE+ mMCP-1+ mast cells; assay: Localization of gavaged HRF inhibitors in jejunum by confocal microscopy; type: in vivo, mouse
# Procedure: HRF multimers in the jejunum of non-sensitized/OVA challenged (Cont, n=6) or OVA-sensitized/OVA-challenged (OVA, n=5) mice were quantified by a newly developed ELISA (FIG. 3A, FIG. 3C). HRF was also measured by ELISA (FIG. 3B). HRF dimer and monomer were quantified by western blotting in control (Cont) and food allergic mice treated without (OVA) or with GST (GST) or GST-N19 (N19) (n=5 for each group) (FIG. 3D). Allergic diarrhea was induced by 6 challenges. On the day of 7th challenge, the mice were gavaged with 0.1 mg of GST or GST-N19 (FIG. 3E). One hour later, mice were sacrificed without OVA challenge. Jejunum tissues were stained for GST, IgE, and mMCP-1 before confocal microscopy (n=5 for GST and n=6 for GST-N19). Arrows indicate cells positive for GST or GST-N19 as well as IgE and mMCP-1. […] Bars=50 μm.
# Jejunum biopsy was fixed in 4% paraformaldehyde at 4° C., washed in 10-20% sucrose in phosphate buffered saline, and embedded in O.C.T. compound (Sakura Finetek, Japan). Cyrosections were made in 6 μm and blocked with 2% skim milk. Immunostaining was performed with anti-HRF (rabbit polyclonal FL-172), anti-GST (rabbit polyclonal Z-5) (Santa Cruz Biotechnology), anti-IgE (clone RME-1 from Biolegend and clone R35-72 from BD Biosciences), anti-mMCP1 (Catalog #AF5146, R&D Systems), anti-CD45 (clone 30-F11), anti-CD63 (clone NVG-2) (Biolegend), and anti-Siglec F (clone E50-2440, BD Biosciences) as primary antibodies, and anti-Rabbit Alexa Fluor 647 (Catalog #A21245), anti-Rat Alexa Fluor 568 (Catalog #A11077), and anti-Sheep Alexa Fluor 555 (Catalog #A11015) (Thermo Fisher Scientific) as secondary antibodies. Coverslips were mounted with Prolong Gold with DAPI (Thermo Fisher Scientific) and fluorescence was observed under Leica TCS SP2 confocal microscopy (Leica) and Nuance Multi spectral Imaging System (PerkinElmer).
# Applicant next tested whether HRF inhibitors target mucosal mast cells. To this end, mice with allergic diarrhea were i.g. gavaged with GST-N19 or GST, and their location was identified 1 h after their gavage.
# [6] = tested on: sensitization phase of murine food allergy; assay: Pretreatment with HRF inhibitor before sensitization with OVA plus alum; type: in vivo, mouse; conditions: 100 μg i.g. one day before i.p. immunization on days 0 and 14
# Procedure: Mice were i.g. pretreated with 100 μg of GST, GST-N19, HRF-2CA or PBS (OVA) one day before i.p. immunization with OVA plus alum on days 0 and 14. From day 28, mice were i.g. challenged with OVA three times a week. (FIG. 9A) Procedure scheme. (FIG. 9B) The development of diarrhea was monitored after OVA challenge. (n=5 for OVA, n=4 for GST, n=5 for N19, n=5 for 2CA, and n=3 each for unsensitized pretreated groups (not shown)). (FIG. 9C, FIG. 9D) Total IgE and IgG1 were measured by ELISA.
# Whether HRF inhibitors affect the sensitization phase of food allergy was tested.
# [7] = molecular target: anti-TNP IgE C38-2; assay: cell-based or functional assay
# [8] = sensitized mice pretreated i.g. with 100 μg before each OVA challenge
molecule,measurement,setting,value
IL-13: Th2 cytokine,HDM-induced HRF secretion,[1],enhanced
same,HRF dimer,[2]; non-reducing gel,increased
same,HRF secretion,[3],strongly induced
IL-6: proinflammatory cytokine,HDM-induced HRF secretion,[1],enhanced
same,secretion of HRF monomer,[2],increased
same,HRF secretion,[3],strongly induced
GST-N19: GST-tagged N-terminal 19 amino acids of HRF; HRF inhibitor,serum mMCP-1 level,"[4]; i.g. pretreatment before each OVA challenge, ELISA",reduced
same,number of mucosal mast cells in jejunum (intestinal mastocytosis),"[4]; i.g. pretreatment before each OVA challenge, chloroacetate esterase staining",inhibits; also recorded: reduced
same,MMC9s in jejunum,"[4]; i.g. pretreatment, flow cytometry",reduced
same,Th2 cytokine mRNAs (Il4 and Il13) in jejunum,"[4]; i.g. pretreatment, qRT-PCR",repressed
same,"levels of total IgE, IgG1, IgG2a or HRF-reactive IgE and IgG","[4]; i.g. pretreatment, serum ELISA",not reduced
same,diarrhea occurrence / incidence,[4]; [8],inhibits; also recorded: reduced
same,onset of diarrhea,[4]; [8],delayed
same,targeting of mast cells in jejunum,[5]; after i.g. gavage,preferentially targets
same,IgE+ mMCP-1+ mast cells co-localized with the substance,"[5]; mice with allergic diarrhea, 1 h after i.g. gavage of 0.1 mg, anti-GST staining",about 65%
same,sensitization phase of murine food allergy,[6],do not affect
"recombinant dimeric murine HRF (HRF-His6, Sephacryl fraction Fr1) (ligand, disulfide bond Cys172-Cys172 between the two monomers) MIIYRDLISHDELFSDIYKIREIADGLCLEVEGKMVSRTEGAIDDSLIGGNASAEGPEGEGTESTVVTGVDIVMNHHLQETSFTKEAYKKYIKDYMKSLKGKLEEQKPERVKPFMTGAAEQIKHILANFNNYQFFIGENMNPDGMVALLDYREDGVTPFMIFFKDGLEMEKCHHHHHH",EC50 of antigen TNP3-BSA for IL-13 release from C38-2-sensitized mouse BMMCs in the presence of 25 µg/ml mHRF dimer (156 ng/ml for 0 µg/ml mHRF dimer),[7],0.124 µg/mL
same,EC50 of antigen TNP3-BSA for IL-13 release from C38-2-sensitized mouse BMMCs in the presence of 50 µg/ml mHRF dimer (156 ng/ml for 0 µg/ml mHRF dimer),[7],0.092 µg/mL
